Experimental data: ChEMBL document CHEMBL4732252, “Generating Selective Leads for Mer Kinase Inhibitors-Example of a Comprehensive Lead-Generation Strategy” (J Med Chem, 2021)

Columns and labels:
[1] = biological target: T1, Tyrosine-protein kinase receptor UFO (Homo sapiens, UniProt P30530); test: (§1) Inhibition of GST-tagged AXL (unknown origin) (464 to 485 residues) using Axltide (CKKSRGDYMTMQJG-acid) peptide as substrate preincubated for 30 mins followed by substrate and ATP addition at Km concentration measured after 180 mins by RapidFire LC-MS analysis
T1 sequence (P30530 whole entry): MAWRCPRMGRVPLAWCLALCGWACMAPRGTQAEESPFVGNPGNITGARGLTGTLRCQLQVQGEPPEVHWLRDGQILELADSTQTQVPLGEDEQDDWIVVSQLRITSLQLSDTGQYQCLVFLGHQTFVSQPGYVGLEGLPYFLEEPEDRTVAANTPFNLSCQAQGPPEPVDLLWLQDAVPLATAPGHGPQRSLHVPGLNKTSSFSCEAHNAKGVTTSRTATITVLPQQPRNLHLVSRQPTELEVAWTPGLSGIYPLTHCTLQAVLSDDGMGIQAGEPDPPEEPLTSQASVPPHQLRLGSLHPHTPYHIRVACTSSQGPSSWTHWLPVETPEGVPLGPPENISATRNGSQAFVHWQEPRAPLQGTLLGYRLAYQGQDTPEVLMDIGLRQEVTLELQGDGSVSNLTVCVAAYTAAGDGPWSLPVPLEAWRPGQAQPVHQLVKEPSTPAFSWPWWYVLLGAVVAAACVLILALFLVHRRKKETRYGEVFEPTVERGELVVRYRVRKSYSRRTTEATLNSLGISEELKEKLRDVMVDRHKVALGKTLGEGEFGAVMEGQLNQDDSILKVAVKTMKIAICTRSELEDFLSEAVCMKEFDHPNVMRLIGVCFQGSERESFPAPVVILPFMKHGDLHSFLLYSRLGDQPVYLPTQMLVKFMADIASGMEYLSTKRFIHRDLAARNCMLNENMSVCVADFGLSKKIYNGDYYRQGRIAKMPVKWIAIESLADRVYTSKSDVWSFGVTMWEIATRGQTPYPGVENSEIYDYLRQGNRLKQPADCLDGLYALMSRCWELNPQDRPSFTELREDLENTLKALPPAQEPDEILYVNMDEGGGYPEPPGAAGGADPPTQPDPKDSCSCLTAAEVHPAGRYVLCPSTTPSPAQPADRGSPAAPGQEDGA

[2] = biological target: T2, Tyrosine-protein kinase Mer (Homo sapiens, UniProt Q12866); test: as §1, with “6His/thrombin cleavage site-fused Avi-tagged dephosphorylated MER” for “GST-tagged AXL”, “(R528” for “(464”, “M999” for “485”, “120” for “180”
T2 sequence (Q12866 whole entry): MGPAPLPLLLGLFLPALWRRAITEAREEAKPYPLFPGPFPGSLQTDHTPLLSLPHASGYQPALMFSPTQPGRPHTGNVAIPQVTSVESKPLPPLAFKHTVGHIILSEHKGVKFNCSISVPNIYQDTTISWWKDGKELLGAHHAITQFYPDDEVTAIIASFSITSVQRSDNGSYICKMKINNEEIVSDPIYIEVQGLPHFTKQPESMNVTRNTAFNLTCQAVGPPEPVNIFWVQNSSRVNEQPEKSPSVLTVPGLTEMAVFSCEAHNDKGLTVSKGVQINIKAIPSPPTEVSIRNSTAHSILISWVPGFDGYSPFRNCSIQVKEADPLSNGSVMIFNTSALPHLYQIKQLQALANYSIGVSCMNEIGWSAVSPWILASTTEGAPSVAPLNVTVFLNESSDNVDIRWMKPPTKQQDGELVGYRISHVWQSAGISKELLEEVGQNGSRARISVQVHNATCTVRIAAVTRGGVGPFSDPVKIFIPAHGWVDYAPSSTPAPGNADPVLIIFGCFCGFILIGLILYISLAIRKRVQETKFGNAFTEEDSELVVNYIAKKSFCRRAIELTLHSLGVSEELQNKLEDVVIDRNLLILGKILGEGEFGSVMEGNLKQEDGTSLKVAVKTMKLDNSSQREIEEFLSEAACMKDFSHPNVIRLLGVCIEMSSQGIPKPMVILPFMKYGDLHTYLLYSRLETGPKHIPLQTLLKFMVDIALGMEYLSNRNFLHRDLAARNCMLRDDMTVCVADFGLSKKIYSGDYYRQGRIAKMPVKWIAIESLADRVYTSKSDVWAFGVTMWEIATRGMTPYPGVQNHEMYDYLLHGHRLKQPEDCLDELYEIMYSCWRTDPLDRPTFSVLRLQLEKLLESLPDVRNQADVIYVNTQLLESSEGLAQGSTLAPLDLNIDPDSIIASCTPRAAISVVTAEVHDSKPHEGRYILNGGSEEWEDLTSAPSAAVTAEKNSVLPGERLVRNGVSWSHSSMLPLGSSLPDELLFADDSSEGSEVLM

[3] = biological target: T3, Tyrosine-protein kinase Mer (Homo sapiens) (UniProt Q12866); test: Inhibition of 6His/thrombin cleavage site-fused Avi-tagged dephosphorylated MER (unknown origin) (R528 to M999 residues) at 1 uM using Axltide (CKKSRGDYMTMQJG-acid) peptide as substrate preincubated for 30 mins followed by substrate and ATP addition at Km concentration measured after 120 mins by RapidFire LC-MS analysis relative to control; conditions: time 150.0 min
T3 sequence (whole entry): T2 sequence (Q12866 whole entry)

[4] = biological target: Tyrosine-protein kinase receptor UFO (Homo sapiens) (UniProt P30530); test: Inhibition of GST-tagged AXL (unknown origin) ([…] residues) at 1 uM using Axltide (CKKSRGDYMTMQJG-acid) peptide as substrate preincubated for 30 mins followed by substrate and ATP addition at Km concentration measured after 180 mins by RapidFire LC-MS analysis relative to control; conditions: time 210.0 min
Homo sapiens [5] = organism: Homo sapiens; test: Selectivity ratio of pIC50 for His6/TEV fused-GST-tagged Flt3 (unknown origin) (H564 to S993 residues) to pIC50 for 6His/thrombin cleavage site-fused Avi-tagged dephosphorylated MER (unknown origin) (R528 to M999 residues)
Homo sapiens [6] = organism: Homo sapiens; test: Selectivity ratio of pIC50 for His6/TEV fused-GST-tagged Flt3 (unknown origin) (H564 to S993 residues) to pIC50 for GST-tagged AXL (unknown origin) ([…] residues)

Compound | IC50 [1] | IC50 [2] | inhibition [3] | inhibition [4] | Ratio pIC50 (Homo sapiens [5]) | Ratio pIC50 (Homo sapiens [6])
CNC(=O)c1sc(N2CC3CC2(CNC(=O)c2c[nH]c4ncc(C(F)(F)F)cc24)C3)nc1C(F)(F)F | 25.1 nM | 63.1 nM |  |  |  | 
CNC(=O)c1sc(N2CC3CC2(CNC(=O)c2c[nH]c4ncccc24)C3)nc1C(F)(F)F | 10 nM | 25.1 nM |  |  |  | 
CNC(=O)C[C@@H](NC(=O)[C@@H](CCc1ccccc1)NC(=O)c1c(C)noc1-c1snnc1C)c1ccc(C(F)(F)F)cc1 | 15.8 nM | 5.01 nM |  |  |  | 
CN(Cc1ccc2nccn2c1)c1nnc(-c2ccc(-c3ccccc3Cl)cc2)o1 | 398 nM | 5.01 nM |  |  |  | 
Cc1c(C(=O)Nc2ccc(Oc3ccnc4[nH]cc(-c5ccccc5)c34)c(F)c2)c(=O)n(-c2ccc(F)cc2)n1C | 3.16 nM | 1.58 nM |  |  |  | 
CN(Cc1ccc2nccn2c1)c1nnc(-c2ccc(-c3ccccc3Cl)nc2)o1 | 3160 nM | 126 nM |  |  |  | 
CN(Cc1ccc2c(c1)CCCO2)c1nnc(-c2ccc(-c3ccccc3Cl)cc2)o1 | 398 nM | 25.1 nM |  |  |  | 
Cc1cc(N(C)C)ccc1-c1nnc(N(C)Cc2ccc3nccn3c2)o1 | 15800 nM | 631 nM |  |  |  | 

Results, then the compound that gave them:

IC50 [1] | IC50 [2] | inhibition [3] | inhibition [4] | Ratio pIC50 (Homo sapiens [5]) | Ratio pIC50 (Homo sapiens [6]) | Compound
1580 nM | 50.1 nM |  |  |  |  | C[C@@H]1CN(c2cnc(Nc3cc(F)c(OCC4CC4)c(F)c3)nc2NC2CCOCC2)CCN1
39800 nM | 631 nM |  |  |  |  | CCn1c(-c2nnc(N(C)Cc3ccc4nccn4c3)o2)nc2ccccc21
1580 nM | 50.1 nM |  |  |  |  | CNc1nc(OCC2CCC2)nc2c1ncn2Cc1c(F)cccc1F
3160 nM | 251 nM |  |  |  |  | COc1cc2ncnc(Nc3cnc(OCCC4CC4)nc3)c2cc1OCC1CCNCC1
10 nM | 25.1 nM | > 75% | > 75% | > 60 | > 60 | CNC(=O)c1sc(N2CC3CC2(CNC(=O)c2c[nH]c4ncc(Cl)cc24)C3)nc1C(F)(F)F
200 nM | 50.1 nM |  |  |  |  | O=S(=O)(c1ccc(Nc2ncc(N3CCOCC3)c(Nc3ccccc3)n2)cc1)N1CCCCC1
3.98 nM | 12.6 nM |  |  |  |  | CNC(=O)c1sc(N2CC3CC2(CNC(=O)c2c[nH]c4ncc(C)cc24)C3)nc1C(F)(F)F
> 100000 nM | 794 nM |  |  |  |  | CN(Cc1ccc2nccn2c1)c1nnc(-c2ncc(C(F)(F)F)cc2Cl)o1
3980 nM | 100 nM |  |  |  |  | CN(Cc1ccc2nccn2c1)c1nnc(-c2ccc(OC3CCCC3)cc2)o1
